Laboratory results published in the CheMixHub ionic liquid set.
Where “and” joins values, the source holds several entries; their conditions need not be identical. Identical values can stand only once.

Test: xn = mol fraction of the nth substance listed
Details: for electrical conductivity: 101.3 kPa

CCCCCCCCn1cc[n+](C)c1.[Cl-] + OC[C@H]1O[C@@](CO)(O[C@H]2O[C@H](CO)[C@@H](O)[C@H](O)[C@H]2O)[C@@H](O)[C@@H]1O + O
298.15 K
Details	electrical conductivity
x2 = 0, x1 = 4.96e-06	0.00314 S/m
x2 = 0, x1 = 7.53e-06	0.00467 S/m
x2 = 0, x1 = 1.002e-05	0.00613 S/m
x2 = 0, x1 = 1.247e-05	0.00756 S/m
x2 = 0, x1 = 1.481e-05	0.00893 S/m
x2 = 0, x1 = 1.716e-05	0.01029 S/m
x2 = 0, x1 = 1.95e-05	0.0116 S/m
x2 = 0, x1 = 2.177e-05	0.0129 S/m
x2 = 0, x1 = 2.424e-05	0.01436 S/m
x2 = 0, x1 = 2.667e-05	0.0158 S/m
x2 = 0, x1 = 2.939e-05	0.0173 S/m
x2 = 0.003591, x1 = 1.259e-05	0.00669 S/m
x2 = 0.003591, x1 = 1.587e-05	0.00832 S/m
x2 = 0.003591, x1 = 1.902e-05	0.00988 S/m
x2 = 0.003591, x1 = 2.222e-05	0.0114 S/m
x2 = 0.003591, x1 = 2.521e-05	0.0129 S/m
x2 = 0.003591, x1 = 2.835e-05	0.0144 S/m
x2 = 0.003591, x1 = 3.142e-05	0.0159 S/m
x2 = 0.003591, x1 = 3.424e-05	0.01727 S/m
x2 = 0.003591, x1 = 3.712e-05	0.0186 S/m
x2 = 0.007156, x1 = 1.254e-05	0.00531 S/m
x2 = 0.007156, x1 = 1.623e-05	0.00676 S/m
x2 = 0.007156, x1 = 1.993e-05	0.00821 S/m
x2 = 0.007156, x1 = 2.37e-05	0.00967 S/m
x2 = 0.007156, x1 = 2.738e-05	0.0111 S/m
x2 = 0.007156, x1 = 3.084e-05	0.01242 S/m
x2 = 0.007156, x1 = 3.403e-05	0.0137 S/m
x2 = 0.007156, x1 = 3.72e-05	0.0149 S/m
x2 = 0.007156, x1 = 4.042e-05	0.01608 S/m
x2 = 0.007156, x1 = 4.288e-05	0.01701 S/m
x2 = 0.0107, x1 = 8.12e-06	0.00311 S/m
x2 = 0.0107, x1 = 1.295e-05	0.00472 S/m
x2 = 0.0107, x1 = 1.756e-05	0.00623 S/m
x2 = 0.0107, x1 = 2.181e-05	0.00762 S/m
x2 = 0.0107, x1 = 2.602e-05	0.00898 S/m
x2 = 0.0107, x1 = 3.017e-05	0.0103 S/m
x2 = 0.0107, x1 = 3.408e-05	0.0115 S/m
x2 = 0.0107, x1 = 3.778e-05	0.0127 S/m
x2 = 0.0107, x1 = 4.136e-05	0.0138 S/m
x2 = 0.0107, x1 = 4.484e-05	0.0149 S/m
x2 = 0.0107, x1 = 4.818e-05	0.016 S/m
x2 = 0.01421, x1 = 9.43e-06	0.00302 S/m
x2 = 0.01421, x1 = 1.407e-05	0.00432 S/m
x2 = 0.01421, x1 = 1.861e-05	0.00559 S/m
x2 = 0.01421, x1 = 2.29e-05	0.00678 S/m
x2 = 0.01421, x1 = 2.718e-05	0.00795 S/m
x2 = 0.01421, x1 = 3.134e-05	0.00908 S/m
x2 = 0.01421, x1 = 3.512e-05	0.0101 S/m
x2 = 0.01421, x1 = 3.883e-05	0.0111 S/m
x2 = 0.01421, x1 = 4.258e-05	0.0121 S/m
x2 = 0.01421, x1 = 4.643e-05	0.01312 S/m
x2 = 0.0177, x1 = 7.66e-06	0.00219 S/m
x2 = 0.0177, x1 = 1.502e-05	0.00393 S/m
x2 = 0.0177, x1 = 2.194e-05	0.00554 S/m
x2 = 0.0177, x1 = 2.846e-05	0.00705 S/m
x2 = 0.0177, x1 = 3.471e-05	0.00848 S/m
x2 = 0.0177, x1 = 4.134e-05	0.00996 S/m
x2 = 0.0177, x1 = 4.728e-05	0.01128 S/m
x2 = 0.0177, x1 = 5.36e-05	0.0127 S/m
x2 = 0.0177, x1 = 5.928e-05	0.0139 S/m
x2 = 0.0177, x1 = 6.496e-05	0.01517 S/m
x2 = 0.02116, x3 = 0.9788	0.0133 S/m and 0.0143 S/m

CCCCn1cc[n+](C)c1C.C[C@@H](O)[C@H](N)C(=O)[O-] + O
100 kPa
Details	viscosity [mPa·s]
288.15 K, x1 = 0.4927	331
293.15 K, x1 = 0.2985	102
293.15 K, x1 = 0.7003	447
298.15 K, x1 = 0.7003	307
298.15 K, x1 = 0.8001	402
308.15 K, x1 = 0.1919	24.8
308.15 K, x1 = 0.4004	63
308.15 K, x1 = 0.599	122
308.15 K, x1 = 0.8001	199
313.15 K, x1 = 0.2985	26.1
313.15 K, x1 = 0.599	78
318.15 K, x1 = 0.2985	21.5
318.15 K, x1 = 0.4004	33.1
318.15 K, x1 = 0.4927	45.9
318.15 K, x1 = 0.7003	77
318.15 K, x1 = 0.8001	92

CCCC[n+]1ccc(C)cc1.F[B-](F)(F)F + CO
101 kPa
Details	viscosity [mPa·s]
298.15 K, x2 = 0	196
298.15 K, x2 = 0.4287	19.3
298.15 K, x2 = 0.5246	11.58
298.15 K, x2 = 0.9671	0.729
313.15 K, x2 = 0.4287	11.94
313.15 K, x2 = 0.718	2.98
313.15 K, x2 = 0.8803	1.13
323.15 K, x1 = 0.01507	0.447
323.15 K, x2 = 0.8313	1.31
323.15 K, x2 = 0.8803	0.972
